{"source": "patent US9408853B2", "about": "“Iridium/rhodium anti-cancer compounds” (University of Warwick, priority 2010, dated 2016)", "key": {"[1]": {"test": "Kinetics of hydrolysis followed by 1H NMR", "format": "physicochemical", "settings": "for k (hydrolysis): 0.2 mM, 5% MeOD-d4/95% D2O, pH* 3", "method": "Kinetics for Hydrolysis. Although complexes ZL01-ZL04, ZL07, ZL38 and ZL43 hydrolyzed too rapidly to monitor by ^1H NMR, The kinetics of hydrolysis for complexes ZL25, ZL33, ZL37 and ZL54 were followed by ^1H NMR at different temperatures. For this, solutions of the complexes with a final concentration of 0.2 mM in 5% MeOD-d4/95% D2O (v/v) were prepared by dissolution of the complexes in MeOD-d4 followed by rapid dilution using D2O with a pH* of about 3 (acidified with HClO4), so that the aqua ligand was not deprotonated. ^1H NMR spectra were taken after various time intervals. The rates of hydrolysis were determined by fitting plots of concentrations (determined from ^1H NMR peak integrals) versus time to a pseudo first-order equation using ORIGIN version 7.0. The Arrhenius activation energy (Ea), activation enthalpies (ΔH^¢), and activation entropy (ΔS^‡) for compounds ZL25, ZL33, ZL37 and ZL54 were determined from the slopes of the Arrhenius and intercepts of Eyring plots.\nThe rates of hydrolysis of compounds ZL01-ZL04, ZL07, ZL25, ZL33, ZL37, ZL38, ZL43 and ZL54 in a 5% MeOD-d4/95% D2O were monitored by ^1H NMR at different temperature from 278 to 298 K by the observation of new peaks over time due to aqua adduct formation. Five percent MeOD was used to improve solubility, and acidic conditions (D2O, pH* 3) were used to prevent the deprotonation of the aqua complex as a secondary reaction. […] The percentage of aqua peak formation for ZL25, ZL33, ZL37 and ZL54 was plotted against time and was fitted to pseudofirst order kinetics (FIG. 3), and their halflife times were calculated (Table 1). The Arrhenius activation energy (Ea), activation enthalpy (ΔH^¢), and activation entropy (ΔS^‡) of compound ZL25, ZL33, ZL37 and ZL54 are listed in Table 4. The large negative ΔS^‡value for compound ZL54 is notable. The extent of hydrolysis at equilibrium is medium for all compounds, ranged from 30% to 60%."}, "9-ethyladenine (9-EtA)": {"tested_on": "9-ethyladenine (9-EtA)", "test": "Interactions with nucleobases: 9-EtA adduct formation (1H NMR)", "format": "binding", "settings": "10 min; 1 mM, 1 mol equiv 9-EtA, D2O, 310 K", "method": "Interactions with Nucleobases. The reaction of ZL01, ZL03, ZL04, ZL07, ZL25, ZL33, ZL37, ZL38, ZL43 and ZL54 and ZL33A with nucleobases typically involved addition of a solution containing 1-2 mol equiv of nucleobase in D2O, to an equilibrium solution of ZL01, ZL03, ZL04, ZL07, ZL25, ZL33, ZL37, ZL38, ZL43, ZL54 and ZL33A in a solution of 5% MeOD-d4/95% D2O (v/v). ^1H NMR spectra of these solutions were recorded at 310 K after various time intervals.\nSince DNA is a potential target site for transition metal anticancer complexes,^18 nucleobase binding reactions of compounds ZL01, ZL03, ZL04, ZL07, ZL25, ZL33, ZL33A, ZL37, ZL38, ZL43 and ZL54 with nucleobase models 9-ethylguanine (9-EtG) and 9-ethyladenine (9-EtA), were investigated. Solutions of ZL01, ZL03, ZL04, ZL07, ZL25, ZL33, ZL37, ZL38, ZL43 and ZL54 (1 mM) (containing an equilibrium mixture of these complexes and their respective aqua adducts) with 1 mol equivalent of 9-EtG or 9-EtA in D2O were prepared, and ^1H NMR spectra were recorded at different time intervals."}, "[2]": {"tested_on": "ca. 60 cell lines within nine tumour type subpanels", "format": "cell-based", "from_the_text": "Six complexes, [(η^5-C5Me4C6H4C6H5)Ir(bpy)Cl]PF6 (ZL25, bpy=2,2′-bipyridine), [(η^5-C5Me4C6H5)Ir(phen)Cl]PF6 (ZL33, phen=1,10-phenanthroline), [(η^5-C5Me4C6H4C6H5) Ir(pico)Cl] (ZL43, pico=picolinate), [(η^5-C5Me5)Ir(2-phpy)Cl] (ZL47), [(η^5-C5Me4C6H4C6H5)Ir(2-phPY)(D2O)Cl] (ZL49) and [(η^5-C5Me4C6H4C6H5) Ir(phen)Cl]PF6 (ZL54), were selected by Developmental Therapeutics Program of National Cancer Institute (NCI, U.S.A.) for in vitro screening test, in which 5 complexes except ZL43 are selected for further testing. The five complexes were tested on ca. 60 cell lines within nine tumour type subpanels at five concentrations ranging from 0.01 to 100 μM."}, "9-ethylguanine (9-EtG)": {"tested_on": "9-ethylguanine (9-EtG)", "test": "Interactions with nucleobases: 9-EtG adduct formation (1H NMR)", "format": "binding", "settings": "1 mM, 1 mol equiv 9-EtG (ZL33A: 2 mol equiv), D2O, 310 K", "how_it_was_run": "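Complexes (1 mM, equilibrium mixture with their aqua adducts) in 5% MeOD-d4/95% D2O mixed with 1–2 mol equiv 9-EtG in D2O. Adduct formation followed by 1H NMR at 310 K over various time intervals.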"}, "SW480 cancer cell line": {"tested_on": "SW480 cancer cell line", "test": "Cytotoxicity, MTT assay (Brabec group)", "format": "cell-based", "method": "(§1) The cytotoxicity test of ZL07, ZL33, ZL38 and ZL54 against A2780, SW480, A549 and CH1 cell lines was performed by Viktor Brabec group (Institute of Biophysics, Academy of Sciences of the Czech Republic). After plating, the cells were treated with ZL07, ZL33, ZL38 and ZL54. After 72h of incubation 10 μl of MTT (2.5 mg/ml; CALBIOCHEM) was added to each well and incubated for 4 h in culture conditions. At the end of the incubation period the medium was removed and the formazan product was dissolved in 100 μl DMSO. The cell viability was evaluated by measurement of the absorbance at 570 nm, using an Absorbance Reader SUNRICE TECAN SCHOELLER. […] All experiments were made in quadruplicate."}, "CH1 cancer cell line": {"tested_on": "CH1 cancer cell line", "test": "Cytotoxicity, MTT assay (Brabec group)", "format": "cell-based", "method": "as §1"}, "A549 cancer cell line": {"tested_on": "A549 cancer cell line", "test": "Cytotoxicity, MTT assay (Brabec group)", "format": "cell-based", "method": "as §1"}, "[3]": {"settings": "highest test concentration 130 μM"}}, "note": "Where “and” joins values, the source holds several entries; their conditions need not be identical. Equal entries are not always repeated."}
{"compound": "Cc1c(C)c(-c2ccccc2)[c-](C)c1C.F[P-](F)(F)(F)(F)F.[Cl-].[Ir+3].c1cnc2c(c1)ccc1cccnc12", "note": "(centres unmarked) [ZL33, [(η^5-C5Me4C6H5)Ir(phen)Cl]PF6]", "values": [{"measurement": "k (hydrolysis)", "setting": "[1]; 278 K", "result": 0.033, "unit": "min⁻¹"}, {"measurement": "k (hydrolysis)", "setting": "[1]; 283 K", "result": 0.0693, "unit": "min⁻¹"}, {"measurement": "k (hydrolysis)", "setting": "[1]; 288 K", "result": 0.1264, "unit": "min⁻¹"}, {"measurement": "Ea (Arrhenius activation energy of hydrolysis)", "setting": "[1]; from Arrhenius plot", "result": 20.5, "unit": "kcal/mol"}, {"measurement": "ΔH^‡ (activation enthalpy of hydrolysis)", "setting": "[1]; from Eyring plot", "result": 20.06, "unit": "kcal/mol"}, {"measurement": "ΔS^‡ (activation entropy of hydrolysis)", "setting": "[1]; from Eyring plot", "result": 29.3, "unit": "J K^−1mol^−1"}, {"measurement": "Reaction with 9-EtA, extent of adduct formation", "setting": "9-ethyladenine (9-EtA)", "result": 0, "unit": "%"}, {"measurement": "CC50", "setting": "[2]", "result": 93.3, "unit": "µM"}, {"measurement": "Mean graph midpoint (MID) TGI", "setting": "[2]; ca. 60 cell lines, 0.01 to 100 μM", "result": 51.3, "unit": "µM"}, {"measurement": "GI50", "setting": "[2]; ca. 60 cell lines, 0.01 to 100 μM, read-out: Mean graph midpoint (MID) GI50", "result": 10.7, "unit": "µM"}, {"measurement": "selectivity among tumour type subpanels (in words)", "setting": "[2]; mean graphs", "result": "selective for leukemia, CNS cancer, melanoma, and prostate cancer"}, {"measurement": "Reaction with 9-EtG, extent of adduct formation", "setting": "9-ethylguanine (9-EtG); 10 min", "result": "15% and 15.5%"}, {"measurement": "Reaction with 9-EtG, extent of adduct formation", "setting": "9-ethylguanine (9-EtG); 24 h", "result": 42.2, "unit": "%"}, {"measurement": "IC50", "setting": "SW480 cancer cell line; 72 h incubation, MTT", "result": "1.41 ± 0.2", "unit": "µM"}, {"measurement": "times more active than cisplatin", "setting": "SW480 cancer cell line; SW480", "result": "ca. 6.5 times"}, {"measurement": "cytotoxicity towards SW480 (in words)", "setting": "SW480 cancer cell line; [3]", "result": "promising cytotoxicity"}, {"measurement": "IC50", "setting": "CH1 cancer cell line; 72 h incubation, MTT", "result": "1.32 ± 0.3", "unit": "µM"}, {"measurement": "cytotoxicity towards CH1 (in words)", "setting": "CH1 cancer cell line; [3]", "result": "promising cytotoxicity"}, {"measurement": "IC50", "setting": "A549 cancer cell line; 72 h incubation, MTT", "result": "11.5 ± 2.4", "unit": "µM"}, {"measurement": "cytotoxicity towards A549 (in words)", "setting": "A549 cancer cell line; [3]", "result": "promising cytotoxicity"}]}
